According to patent publication US9632092B2, “Reagent for diagnosing tumor, pharmaceutical composition, and screening method” (Tokyo Metropolitan Institute of Medical Science, priority 2012, dated 2017):
Where no end group is shown, it is not given here. [ ]: non-standard residue; d: D form. pS = N[C@@H](COP(=O)(O)O)C(=O)O

Columns and labels:
Huh-1_p62^−/− cells = experiment: subdermal transplantation of Huh-1_p62−/− cells with introduced p62 mutants into nude mice; assay type: in vivo; conditions: 50 days after transplantation, introduced into Huh-1_p62−/−
Method: First, p62 cDNAs which encode S349E (SEQ ID No. 8) (pseudo-phosphorylated p62) with the substitution of glutamic acid for serine 349 of human p62 (SEQ ID No. 7), S349A (SEQ ID No. 9) (non-phosphorylated p62) with the substitution of alanine for serine 349 of human p62, or T350A (SEQ ID No. 10) (p62 mutant defective in interacting with Keap1) with the substitution of alanine for threonine 350 of human p62 was prepared.
Next, a [Huh-1_p62^−/−] cell line was generated by knocking out the p62 gene in Huh-1 cells, using Zinc Finger Nuclease system (Sigma-Aldrich, CompoZr (registered trademark) Zinc Finger Nuclease). Then, adenoviruses having p62 w.t. or p62 mutant were produced, using Adenovirus expression kit (Takara Bio). The [Huh-1_p62^−/−] cells were cultured in 2 ml of a growth medium (Williams E medium containing 10% fetal bovine serum, 5 U/ml penicillin, and 50 μg/ml streptomycin) for 24 hours. The medium was replaced with a fresh medium containing adenovirus at MOI of 50 and the cells were continuously cultured. Wild-type human p62 (SEQ ID No. 7), S349E (SEQ ID No. 8), S349A (SEQ ID No. 9), and T350A (SEQ ID No. 10) were introduced into the [Huh-1_p62^−/−] cell line and thus a [Huh-1_p62^−/−_p62 w.t.] cell line with p62 w.t., a [Huh-1_p62^−/−_p62S349E] cell line with p62S349E, a [Huh-1_p62^−/−_p62S349A] cell line with p62S349A, and a [Huh-1_p62^−/−_p62T350A] cell line with p62T350A, respectively, in [Huh-1_p62^−/−] cell line was obtained.
Each of the cells was transplanted subdermally into […] nude mice. […] Each cell line was transplanted into five mice and the volume (left) and the weight (right) of the tumors were measured 50 days after the transplantation. Mean±standard error for each cell line was calculated and shown in the graphs in FIG. 7(b).

Nrf2 = experiment: immunoblotting of nuclear and whole cell extracts of hepatocytes expressing p62 mutants; assay type: cell-based, mouse; conditions: normal hepatocytes
Method: Adenoviruses capable of expressing FLAG-tagged p62 w.t. […] Next, normal hepatocytes were cultured in 2 ml of growth medium (Williams E medium containing 10% fetal bovine serum, 5 U/mL penicillin, and 50 μg/mL streptomycin) for 24 hours. The medium was replaced with fresh medium containing the adenovirus at MOI of 50 and the culture was continued. Twenty-four hours after the replacement of the medium, whole cell extract (Total) and nuclear extract (Nucleus) were prepared. Next, immunoprecipitates were prepared from the whole cell extract with anti-FLAG antibody (Sigma Chemical). Then, the samples were separated by NuPAGE electrophoresis system (Invitrogen) on 12% bis-tris gel and MOPS-SDS buffer, and transferred to PVDF membranes. The signals were detected using anti-p62 antibody (GP62C: Progen Biotechnik), anti-Keap1 antibody (Proteintech Group), anti-phosphorylated p62 antibody, anti-Nqo1 antibody (Abcam), anti-Actin antibody (MAB1501R: Millipore), anti-Nrf2 antibody (H-300: Santa Cruz Biotechnology), and anti-LaminB antibody (M-20: Santa Cruz Biotechnology).

[1] = biological target: mouse Keap1-DC (aa321-609, SEQ ID No. 24) (Mus musculus, UniProt Q9Z2X8); experiment: isothermal titration calorimetry, binding to Keap1-DC; conditions: for Binding constant (Ka) to Keap1-DC: isothermal titration calorimetry, 25° C.; for binding affinity for Keap1-DC relative to KIR of the non-phosphorylated p62: fold higher binding constant
Chain of mouse Keap1-DC (aa321-609, SEQ ID No. 24) (Q9Z2X8 321-609): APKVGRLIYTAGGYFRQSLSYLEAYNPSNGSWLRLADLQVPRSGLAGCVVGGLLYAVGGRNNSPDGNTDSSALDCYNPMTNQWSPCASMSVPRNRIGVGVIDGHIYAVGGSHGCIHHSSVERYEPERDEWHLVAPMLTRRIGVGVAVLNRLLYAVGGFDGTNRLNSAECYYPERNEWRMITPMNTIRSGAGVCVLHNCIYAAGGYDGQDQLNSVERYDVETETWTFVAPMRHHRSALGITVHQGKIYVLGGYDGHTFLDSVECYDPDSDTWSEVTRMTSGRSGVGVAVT
Method: Binding isotherms were obtained using isothermal titration calorimetry, for the interaction of mouse Keap1-DC (aa321-609, SEQ ID No. 24) with KIR in mouse non-phosphorylated p62 (SEQ ID No. 21), KIR in mouse phosphorylated p62 (SEQ ID No. 21), or an ETGE motif of mouse Nrf2 (SEQ ID No. 26) (FIG. 2).
First, isothermal titration calorimetry was performed using MicroCal iTC200 System (GE Healthcare) at 25° C. 2.5 μl of 0.1 mM solution of non-phosphorylated KIR (^348[sequence]^356, SEQ ID No. 21) was injected from a rotating syringe (1000 rpm) into 200 μl of 0.1 mM solution of Keap1-DC sixteen times at an interval of 3 minutes. 1.3 μl of 0.6 mM phosphorylated KIR (^348VDP(pS)TGELQ^356) solution was injected from a rotating syringe (1000 rpm) into 200 μl of 0.06 mM Keap1-DC solution thirty times at an interval of 2 minutes. […] The binding data were analyzed using Origin 7 software (GE healthcare).

Substance	in vivo proliferation of the tumor cells (tumor volume and weight) (Huh-1_p62^−/− cells)	Binding constant (Ka) to Keap1-DC [1]	also measured
S349A: non-phosphorylated human p62 mutant, alanine for serine 349, SEQ ID No. 9	not recovered		
S351E: pseudo-phosphorylated mouse p62 mutant, glutamic acid for serine 351, SEQ ID No. 2			Nrf2 accumulation in nuclei (Nrf2; nuclear extract): significantly accumulated; expression of Nqo1 (Nrf2 target) (Nrf2; whole cell extract): induced
T350A: human p62 mutant defective in interacting with Keap1, alanine for threonine 350, SEQ ID No. 10 [reference compound]	not recovered		
non-phosphorylated p62-KIR: non-phosphorylated Keap1-interacting region peptide of mouse p62, 348VDPSTGELQ356, SEQ ID No. 21 (listed as Mus musculus) [reference compound]		(5.67±1.19)×10^4 M^−1	
p62 (S349E): pseudo-phosphorylated human p62 mutant, glutamic acid for serine 349, SEQ ID No. 8	significantly enhanced		
phosphorylated p62-KIR: Keap1-interacting region peptide of mouse p62 phosphorylated at serine 351, 348VDP(pS)TGELQ356 (VDP[pS]TGELQ; listed as Mus musculus)		(5.12±1.80)×10^6 M^−1	binding affinity for Keap1-DC relative to KIR of the non-phosphorylated p62 [1]: about 100 times; binding affinity for Keap1-DC relative to KIR of the non-phosphorylated p62 ([1]; listed as KIR in the phosphorylated p62): approximately 100 times
